Literature values as cited in patent US20190230969A1, “COMPOSITION OF PURIFIED SOLUBLE MANNANS FOR DIETARY SUPPLEMENTS AND METHODS OF USE THEREOF” (priority 2010, published 2019).

What was measured:
[1] = test system: patients; conditions: in vivo
[2] = test system: normal and castrated rats; conditions: 10 mg/kg subcutaneously biweekly, 4 weeks

Row | SMILES | gastrointestinal disturbances (flatulence, abdominal distension, borborygmus, diarrhea) [1] | effect on BUN and testosterone levels [2]
1 | C[C@H]1O[C@H](O[C@H]2[C@H](O)[C@@H](O)[C@@H](O[C@H]3[C@H](O)[C@@H](O)C(O)O[C@@H]3CO)O[C@@H]2CO)[C@H](O)[C@@H](O)[C@@H]1N[C@H]1C=C(CO)[C@@H](O)[C@H](O)[C@H]1O (some centres unmarked) [acarbose] | High incidence of gastrointestinal disturbances | 
2 | C[C@]12CC[C@H]3[C@@H](CCC4=CC(=O)CC[C@@]43C)[C@@H]1CC[C@@H]2O [testosterone] |  | increases
